System: OVCAR-8 complex spheroid, growth inhibition
Experiment: Anticancer human tumor OVCAR-8 cell line growth inhibition [Asc];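 note: spheroids exposed to agents for 7 days before readout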;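 for viability, T/C: percent viability relative to DMSO vehicle wells taken as 100%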
Settings: for IC50: curve of first compound; for viability, T/C: stronger effect = lower value
Outline: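 Stromal components (HUVEC and hMSC) are co-assembled with the cancer cells into multicellular spheroids. Drugs are then added singly or paired, at concentrations falling by half-log increments from a clinically achievable maximum, capped at 10 microM without known Cmax.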

In the case of NC(=O)C(=Cn1cnc(-c2cc(C(F)(F)F)cc(C(F)(F)F)c2)n1)c1cncnc1 + CNC(C)C(=O)NC1CN(S(=O)(=O)c2cccc(S(=O)(=O)N3CCC4CCC(C(=O)NC(c5ccccc5)c5ccccc5)N4C(=O)C(NC(=O)C(C)NC)C3)c2)CCC2CCC(C(=O)NC(c3ccccc3)c3ccccc3)N2C1=O, the IC50 (second compound 0.00316 µM) is reported as 0.261 µM, the IC50 (second compound 0.01 µM) is reported as > 0.3 µM and the IC50 (second compound 0.0316 µM) is reported as > 0.3 µM. It also gave an IC50 (second compound 0.1 µM) of 0.12 µM, an IC50 (second compound 0.316 µM) of 0.0732 µM and an IC50 (second compound 1 µM) of 0.0679 µM. The viability, T/C (second compound 0.00316 µM, first compound 0.000949 µM) was 140%, the viability, T/C (second compound 0.00316 µM, first compound 0.003 µM) was 111% and the viability, T/C (second compound 0.00316 µM, first compound 0.00949 µM) was 110%. For the same molecule, the viability, T/C (second compound 0.00316 µM, first compound 0.03 µM) was 153%, the viability, T/C (second compound 0.00316 µM, first compound 0.0949 µM) was 95.6% and the viability, T/C (second compound 0.00316 µM, first compound 0.3 µM) was 43.8%. The viability, T/C (second compound 0.01 µM, first compound 0.000949 µM) was 123%, the viability, T/C (second compound 0.01 µM, first compound 0.003 µM) was 129% and the viability, T/C (second compound 0.01 µM, first compound 0.00949 µM) was 110%. For the same molecule, the viability, T/C (second compound 0.01 µM, first compound 0.03 µM) was 123%, the viability, T/C (second compound 0.01 µM, first compound 0.0949 µM) was 91.2% and the viability, T/C (second compound 0.01 µM, first compound 0.3 µM) was 54%. The viability, T/C (second compound 0.0316 µM, first compound 0.000949 µM) was 117%, the viability, T/C (second compound 0.0316 µM, first compound 0.003 µM) was 114% and the viability, T/C (second compound 0.0316 µM, first compound 0.00949 µM) was 112%. It also gave a viability, T/C (second compound 0.0316 µM, first compound 0.03 µM) of 129%, a viability, T/C (second compound 0.0316 µM, first compound 0.0949 µM) of 74.5% and a viability, T/C (second compound 0.0316 µM, first compound 0.3 µM) of 48.4%. It also gave a viability, T/C (second compound 0.1 µM, first compound 0.000949 µM) of 122%, a viability, T/C (second compound 0.1 µM, first compound 0.003 µM) of 91.6% and a viability, T/C (second compound 0.1 µM, first compound 0.00949 µM) of 121%. The viability, T/C (second compound 0.1 µM, first compound 0.03 µM) was 138%, the viability, T/C (second compound 0.1 µM, first compound 0.0949 µM) was 55.3% and the viability, T/C (second compound 0.1 µM, first compound 0.3 µM) was 29.5%. It also gave a viability, T/C (second compound 0.316 µM, first compound 0.000949 µM) of 109%, a viability, T/C (second compound 0.316 µM, first compound 0.003 µM) of 115% and a viability, T/C (second compound 0.316 µM, first compound 0.00949 µM) of 113%. The viability, T/C (second compound 0.316 µM, first compound 0.03 µM) was 122%, the viability, T/C (second compound 0.316 µM, first compound 0.0949 µM) was 31.3% and the viability, T/C (second compound 0.316 µM, first compound 0.3 µM) was 7.46%. For the same molecule, the viability, T/C (second compound 1 µM, first compound 0.000949 µM) was 97%, the viability, T/C (second compound 1 µM, first compound 0.003 µM) was 103% and the viability, T/C (second compound 1 µM, first compound 0.00949 µM) was 109%. The viability, T/C (second compound 1 µM, first compound 0.03 µM) was 127%, the viability, T/C (second compound 1 µM, first compound 0.0949 µM) was 25.8% and the viability, T/C (second compound 1 µM, first compound 0.3 µM) was 4.16%.

— PubChem BioAssay AID1963437 (Molecular Pharmacology Branch, DTP, NCI, 2024)
